Converted amounts (≈) assume the structure as drawn.
Assays:
SNQ2 = molecular target: T1, SNQ2 (Saccharomyces cerevisiae, UniProt P32568); assay: Phloroglucinol tolerance of yeast strains overexpressing PDRs (OD600 nm at 24 h); type: cell-based; conditions: inferred from SNQ2 overexpression lifting toxicity at 20 g·l^−1 phloroglucinol
T1 construct: expressed in transfected cells; host or cells: Saccharomyces cerevisiae, gene integrated at the JLP1 locus under the pCCW12 promoter (clones YA2786-1 and YA2786-2)
T1 sequence (P32568 whole entry): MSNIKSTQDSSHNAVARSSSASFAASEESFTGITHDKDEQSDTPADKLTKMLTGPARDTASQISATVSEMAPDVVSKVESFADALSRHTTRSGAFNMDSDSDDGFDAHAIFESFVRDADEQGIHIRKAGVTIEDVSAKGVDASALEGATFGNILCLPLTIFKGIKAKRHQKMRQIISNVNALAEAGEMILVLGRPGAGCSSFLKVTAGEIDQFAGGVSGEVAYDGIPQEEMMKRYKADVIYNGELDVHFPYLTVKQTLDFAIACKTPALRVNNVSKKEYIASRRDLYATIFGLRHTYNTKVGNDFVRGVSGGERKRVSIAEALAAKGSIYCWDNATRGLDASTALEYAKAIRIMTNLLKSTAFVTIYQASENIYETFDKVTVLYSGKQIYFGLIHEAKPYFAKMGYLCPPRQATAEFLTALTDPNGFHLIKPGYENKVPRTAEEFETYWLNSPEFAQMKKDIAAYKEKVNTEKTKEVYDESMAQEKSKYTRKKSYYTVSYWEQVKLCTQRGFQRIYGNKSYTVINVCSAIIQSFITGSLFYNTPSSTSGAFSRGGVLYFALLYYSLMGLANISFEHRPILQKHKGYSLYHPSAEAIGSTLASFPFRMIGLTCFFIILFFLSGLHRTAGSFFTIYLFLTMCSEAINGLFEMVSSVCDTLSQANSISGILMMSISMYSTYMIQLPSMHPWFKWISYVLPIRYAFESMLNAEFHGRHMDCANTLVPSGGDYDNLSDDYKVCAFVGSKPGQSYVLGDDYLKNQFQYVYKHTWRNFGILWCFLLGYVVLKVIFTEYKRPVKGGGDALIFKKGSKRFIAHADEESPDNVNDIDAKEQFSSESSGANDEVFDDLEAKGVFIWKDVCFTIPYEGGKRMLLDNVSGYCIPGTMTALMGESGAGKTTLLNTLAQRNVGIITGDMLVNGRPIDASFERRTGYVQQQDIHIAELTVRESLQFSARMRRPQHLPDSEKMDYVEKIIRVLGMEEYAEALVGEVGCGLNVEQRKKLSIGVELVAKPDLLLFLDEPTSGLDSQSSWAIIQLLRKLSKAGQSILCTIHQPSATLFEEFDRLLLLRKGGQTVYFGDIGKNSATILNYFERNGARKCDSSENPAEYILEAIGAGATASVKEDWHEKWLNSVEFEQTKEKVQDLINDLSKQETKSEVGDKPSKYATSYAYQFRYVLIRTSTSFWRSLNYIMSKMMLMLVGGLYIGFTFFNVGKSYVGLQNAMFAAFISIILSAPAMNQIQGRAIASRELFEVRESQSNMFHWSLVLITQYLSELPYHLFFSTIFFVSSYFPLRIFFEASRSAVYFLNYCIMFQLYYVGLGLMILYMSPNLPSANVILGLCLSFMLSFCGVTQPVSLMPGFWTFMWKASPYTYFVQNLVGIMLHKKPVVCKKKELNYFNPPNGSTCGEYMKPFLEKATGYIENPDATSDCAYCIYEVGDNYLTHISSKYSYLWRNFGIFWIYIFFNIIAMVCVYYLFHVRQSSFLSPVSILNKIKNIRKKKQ
Text: The genes encoding the PDR proteins were amplified from yeast (W303-1A) genomic DNA by PCR (“polymerase chain reaction”) and cloned in plasmids. The accuracy of the sequence was verified by sequencing. The various genes encoding the PDRs were integrated into the genome at the JLP1 locus according to the structure described in FIG. 4A. Each strain constructed bears a YA number, and a library of 28 yeast strains overexpressing a PDR transporter was thus created, in a proportion of two clones per transporter.
In order to test the impact of the PDR overexpression on the phloroglucinol tolerance at high phloroglucinol concentration (>15 g·l^−1), the strains were cultured as follows.
The phloroglucinol was dissolved at the concentration of 20 g·l^−1 in YPD medium containing 2% glucose as carbon source. In order to carry out the experiment, the yeasts expressing each PDR were inoculated at an OD600 nm of 0.05. The cultures were carried out in 48-well microplates, incubated with agitation at 28° C. for 24 h. After 24 h, the OD600 nm is measured. FIG. 5 represents the OD600 nm values obtained at the end of the culture.

yeast cells = assay: Phloroglucinol toxicity in yeast with ethanol added after 20 h of culture; conditions: 20 g/l of phloroglucinol, 50 g·l^−1 ethanol added at 20 h, read at 48 h
Procedure: The toxicity of phloroglucinol in the presence of ethanol added after 20 h of culture was tested.
The experiments were carried out in an Erlenmeyer flask with vigorous stirring in complete medium containing 2% glucose as carbon source. The yeast cells were inoculated at an OD600 nm of 0.05 from precultures in complete medium. The cultures are completed with increasing concentrations of phloroglucinol (0, 1, 5, 10, 15, 20 g/l) and incubated for 48 h. Two series of Erlenmeyer flasks were prepared. In the second series, 50 g·l^−1 of ethanol are added at 20 h. The growth is monitored by taking samples at 18 h, 20 h, 22 h, 24 h, 42 h and 48 h, and measuring the OD600 nm.

[1] = system: bacterial strain of Escherichia coli (ECAO50, derived from Escherichia coli K12); assay: microbe, parasite or virus in culture; conditions: 24 h
Procedure: (§1) In order to know the threshold of phloroglucinol tolerance of bacteria or of yeasts, growth kinetics were prepared in the presence of various concentrations of phloroglucinol. These preliminary experiments aimed to evaluate their EC50.
(§2) The experiment was carried out in the following way. The phloroglucinol was dissolved at the concentration of 15 g·l^−1 in complete medium (Yeast Extract 1%+BactoPeptone 2%) containing 2% glucose as carbon source (YPD medium). The culture media containing lower phloroglucinol concentrations were obtained by diluting this first medium in the same YPD medium containing 2% glucose.
(§3) In order to carry out the experiment, the wild-type yeast or bacterial cells were inoculated at an OD600 nm of 0.05 into the various media, thus containing, as soon as the cultures were started, either 0 (positive control for growth indicated C+), 1, 2.5, 5, 7.5, 10 or 15 g·l^−1 of phloroglucinol. The cultures were carried out in 48-well microplates, at 28° C. for the yeasts, at 37° C. for the bacterial strain, with vigorous shaking for 24 h. Two yeast strains (Saccharomyces cerevisiae) and one bacterial strain (Escherichia coli) were tested.

CC787-1B yeast strain = assay: Growth kinetics of yeast cells in the presence of increasing phloroglucinol concentrations
Procedure: as §1, §2, §3

Oc1cc(O)cc(O)c1 [phloroglucinol, benzene-1,3,5-triol]
transporter substrate status (SNQ2): substrate for SNQ2
phloroglucinol inhibition in the presence of ethanol versus without ethanol (yeast cells): slightly greater
concentrations giving total inhibition of the growth ([1]; 37° C.): greater than or equal to 2.5 g·l^−1
EC50 ([1]; Escherichia coli, read-out: EC50 of phloroglucinol on growth): ~750 µg/mL (≈ 5.95 mM)
inhibition of the growth ([1]; at the concentration of 1 g·l^−1, 37° C.): very considerable inhibition of the growth
EC50 (CC787-1B yeast strain; Saccharomyces cerevisiae, 24 h, read-out: EC50 of phloroglucinol on growth): > 10000 µg/mL
concentration from which phloroglucinol toxicity on yeast cells is apparent (CC787-1B yeast strain; conclusion): ≥ 15000 µg/mL
concentration at which significant inhibition of the growth is observed (CC787-1B yeast strain; only in this medium among 1-15 g·l^−1, 28° C., 24 h): 15000 µg/mL
